Earlier results, collected in US20220401389A1, “TRANSMUCOSAL THERAPEUTIC SYSTEM CONTAINING AGOMELATINE” (LTS LOHMANN Therapie-Systeme AG, priority 2019, published 2022).

[1] = patients with moderate hepatic impairment compared to healthy subjects

COc1ccc2cccc(CCNC(C)=O)c2c1 [agomelatine, N-(2-(7-Methoxy-1-naphthyl)ethyl)acetamide]
oral absorption (oral): > 80%
overall bioavailability (oral): less than 5%
increase of AUC [1]: up to 140 fold
increase of cmax [1]: up to 140 fold
